What was measured:
Format in all cases: in vivo, human
[1] = system: Humans; test: Prevention or delay of onset of atherosclerosis in humans (Example 23); conditions: 2 mg/kg to 50 mg/kg iv or im, one to six months
Protocol: Individuals with documented risk factors for atherosclerosis and having high plasma cholesterol levels have a ultrasound analysis of the coronary (IVUS), carotid (IMT) or popliteal arteries to establish a baseline measurement. A portion of these individuals are […] administered a composition comprising a compound of the present invention in an acceptable carrier at a dose of 2 mg/kg to 50 mg/kg intravenously (iv) or intramuscular (im) I to 3 times per week over a period of approximately one to six months. The following compounds are administered to these individuals: 3,4-methylenedioxy phenyl acetate (INV 73); 3,4-methylenedioxy-6-nitrophenol (INV 74); 3,4-methylenedioxy-6-nitrophenyl acetate (INV 75); 3,4-Methylenedioxy 6-nitro phenyl lipoate (INV-7465) or 3,4-Methylenedioxy phenyl lipoate (INV-7065). The other individuals receive the carrier alone. A new ultrasound analysis at the end of the treatment period indicates higher levels of plaque in the vessels of individuals receiving the carrier.

[2] = system: Patient; test: Treatment of a patient with acute ST elevation myocardial infarction (Examples 13-15); conditions: 1.0 to 100 mg/kg intravenously
Protocol: A person presents with sudden chest pain typically radiating to the left arm or left side of the neck, shortness of breath, nausea and palpitation with vomiting and sweating. After being evaluated with an electrocardiogram (EKG, ECG), a chest X-ray and blood tests to detect elevations in cardiac markers (blood tests to detect heart muscle damage), they are diagnosed as suffering from acute ST elevation myocardial infarction. The patient is administered a composition comprising an effective amount of 3,4-methylenedioxy-6-nitrophenyl acetate (INV 75) (1.0 to 100 mg/kg) intravenously. The composition is optionally administered in conjunction with therapy such as thrombolytic drugs such as tissue plasminogen activator (tPA) or streptokinase and administration of aspirin, a drug to reduce the tendency of platelet aggregation, such as clopidogrel bisulfate, a statin, and/or heparin or a combination thereof, using dosages known to one of ordinary skill in the art. Patient reports improvement in the chest pain, shortness of breath and palpitations.
(§1) A person presents with sudden chest pain typically radiating to the left arm or left side of the neck, shortness of breath, nausea and palpitation with vomiting and sweating. After being evaluated with an electrocardiogram (EKG, ECG), a chest X-ray and blood tests to detect elevations in cardiac markers (blood tests to detect heart muscle damage), they are diagnosed as suffering from acute ST elevation myocardial infarction. The patient is administered a composition comprising an effective amount of 3,4-methylenedioxy-6-nitrophenyl acetate (INV 7465) (1.0 to 100 mg/kg) intravenously. […]
as §1, with “infarction.” for “infarction. The patient is administered a composition comprising an effective amount of 3,4-methylenedioxy-6-nitrophenyl acetate (INV 7465) (1.0 to 100 mg/kg) intravenously.”

[3] = system: Humans; test: Treatment of established atherosclerosis in humans (Example 21); conditions: oral, in excess of 12 months
Excerpt: Individuals with established atherosclerosis with evidence of plaque in the coronary arteries, carotid arteries or peripheral arteries are known to be at risk for future cardiovascular events such as heart attacks and strokes. These individuals are on treatments such as statins and anti-hypertensive agents such as ACE inhibitors, diuretics or calcium channel blockers. They also will receive an acceptable dose of a composition comprising a compound of the present invention in an acceptable carrier orally and chronically for durations in excess of 12 months. In one study, 3,4-methylenedioxy phenyl acetate (INV 73); 3,4-methylenedioxy-6-nitrophenol (INV 74); 3,4-methylenedioxy-6-nitrophenyl acetate (INV 75); 3,4-Methylenedioxy 6-nitro phenyl lipoate (INV-7465) or 3,4-Methylenedioxy phenyl lipoate (INV-7065) are administered to these individuals. A repeat IVUS measurement is made at the end of the treatment period to assess the effect of the infusion of the composition on coronary atherosclerosis in the target vessel.

Q: How did the “preventing or reducing atherosclerosis (ultrasound, versus carrier alone)” value [1] turn out when `O=C(CCCCC1CCSS1)Oc1cc2c(cc1[N+](=O)[O-])OCO2` (stereo not drawn) [INV-7465, 3,4-Methylenedioxy 6-nitro phenyl lipoate] was run?
A: effective

Q: What about the “chest pain, shortness of breath and palpitations” value [2] of the same molecule?
A: improvement

Q: And the “plaque in the atherosclerotic coronary artery (IVUS)” value [3]?
A: reduced

Q: What does the source list for `O=C(CCCCC1CCSS1)Oc1ccc2c(c1)OCO2` (stereo not drawn) [INV-7065, 3,4-Methylenedioxy phenyl lipoate]?
A: preventing or reducing atherosclerosis (ultrasound, versus carrier alone) [1]: effective; chest pain, shortness of breath and palpitations [2]: improvement; plaque in the atherosclerotic coronary artery (IVUS) [3]: reduced

Q: What does the source list for `CC(=O)Oc1cc2c(cc1[N+](=O)[O-])OCO2` [INV-75, 3,4-methylenedioxy-6-nitrophenyl acetate]?
A: preventing or reducing atherosclerosis (ultrasound, versus carrier alone) [1]: effective; chest pain, shortness of breath and palpitations [2]: improvement; plaque in the atherosclerotic coronary artery (IVUS) [3]: reduced

From patent US8198317B2, “Methylenedioxy phenolic compounds and their use to treat disease” (The Ohio State University Research Foundation, priority 2008, dated 2012)
